This assay relates to Primary canine bronchial epithelia (CBE). The assay can be described thus: Gravimetric measurement of surface liquid volume on primary bronchial epithelial cultures at air-liquid interface (Assay #4). The assay is classed as cell-based. As to the method: 4. Durability of Novel ENaC Blockers with or without Osmolytes on Airway Surface Liquid on an in vitro Cell Culture Model.
Using a gravimetric (weighing) procedure, the luminal surface liquid (mass/volume) on primary bronchial epithelial cultures grown at an air/liquid interface on permeable membrane supports (Corning) are measured, and changes in luminal surface liquid volume are recorded for up to 8 h. An applied starting volume of buffer (Krebs-Henseleit Bicarbonate Buffer Solution) with and without equimolar concentrations (0.1-100 μM) of selected novel or commercially available sodium channel blockers with or without osmolytes are added and at which point the experiment is started. The permeable supports are then reweighted at select time points and the mass/volume recorded. The data is then analyzed determining the changes in surface liquid mass/volume form beginning to the end of the 8 hour time frame.
To measure the effects of novel sodium channel blockers with or without osmotically active agents on surface liquid volume on airway surface liquid an in vitro cell culture model was used as described above, Assay #4. The effects of an ionic osmolyte, 1.5% NaCl (hypertonic saline), with or without 10 μM of compound 1 before and after adding 1.5% NaCl and compared it to isotonic buffer (vehicle) (FIG. 1) on surface liquid volume was measured over 8 hours. Using the same method (Assay #4) the effects of a non-ionic osmolyte mannitol at 4.2 and 8.4 mg/mL were compared to compound 1 and isotonic buffer (vehicle) (FIG. 2), and also by combining mannitol (4.2 and 8.4 mg/mL) with compound 1 at 1 and 10 μM (FIG. 3) on surface liquid volume was measured. The effects of compound 2 with an ionic osmolyte, 1.5% NaCl (hypertonic saline), was compared to compound 1 and hypertonic saline (1.5% NaCl), compound 1 in isotonic buffer, compound 2 in isotonic buffer, 1.5% NaCl, and isotonic buffer (vehicle) (FIG. 4) on changes in surface liquid over 8 hours. […]

In the case of `N=C(NCCCCc1ccc(OCC(O)CO)cc1)NC(=O)c1nc(Cl)c(N)nc1N` (stereo not drawn) [Compound 1], for the setting “Compound 1 (10 μM) with pre or post administration of 1.5% NaCl solution, maintained for 8 hours, n=12”, the volume expansion is recorded as 132+13%. Under “Compound 1 alone at 10 μM, for over 8 hours”, the “inhibition of volume depletion (surface liquid volume)” value is listed as 74.7 ± 8.7%. For the same molecule, where the note is “hypertonic saline (1.5% NaCl) combined with Compound 1 (10 μM)”, the “duration of the increase in ASL volume” value is reported as “over 8 h”.

These data come from patent US7981898B2, “Methods of enhancing mucosal hydration and mucosal clearance by treatment with sodium channel blockers and osmolytes” (Parion Sciences, Inc., priority 2006, dated 2011).
